Test results from patent US20210032291A1, “Compstatin Analogs With Improved Pharmacokinetic Properties” (The Trustees of the University of Pennsylvania, priority 2011, published 2021).
Bridge positions count the residues as written; N and C are the ends. Square brackets hold non-standard residues; d marks the D form. Peptide text beside a SMILES is read from it. Trp(1-Me) = Cn1cc(C[C@H](N)C(=O)O)c2ccccc21; NMeI = CC[C@H](C)[C@H](NC)C(=O)O; Sar = CNCC(=O)O

Experiments:
C3b = target: T1, C3b (Homo sapiens, UniProt P01024); assay: SPR kinetic analysis of binding to immobilized C3b (Biacore, single cycle kinetics); settings: for ka: association rate / Kd / koff: Table 1, N-terminal analogs; for Kd: read-out: KD: binding constant from SPR; for koff: read-out: kd: dissociation rate
T1 construct: Biotinylated C3b was captured site-specifically on a streptavidin chip
T1 sequence (P01024 23-667 limits assumed): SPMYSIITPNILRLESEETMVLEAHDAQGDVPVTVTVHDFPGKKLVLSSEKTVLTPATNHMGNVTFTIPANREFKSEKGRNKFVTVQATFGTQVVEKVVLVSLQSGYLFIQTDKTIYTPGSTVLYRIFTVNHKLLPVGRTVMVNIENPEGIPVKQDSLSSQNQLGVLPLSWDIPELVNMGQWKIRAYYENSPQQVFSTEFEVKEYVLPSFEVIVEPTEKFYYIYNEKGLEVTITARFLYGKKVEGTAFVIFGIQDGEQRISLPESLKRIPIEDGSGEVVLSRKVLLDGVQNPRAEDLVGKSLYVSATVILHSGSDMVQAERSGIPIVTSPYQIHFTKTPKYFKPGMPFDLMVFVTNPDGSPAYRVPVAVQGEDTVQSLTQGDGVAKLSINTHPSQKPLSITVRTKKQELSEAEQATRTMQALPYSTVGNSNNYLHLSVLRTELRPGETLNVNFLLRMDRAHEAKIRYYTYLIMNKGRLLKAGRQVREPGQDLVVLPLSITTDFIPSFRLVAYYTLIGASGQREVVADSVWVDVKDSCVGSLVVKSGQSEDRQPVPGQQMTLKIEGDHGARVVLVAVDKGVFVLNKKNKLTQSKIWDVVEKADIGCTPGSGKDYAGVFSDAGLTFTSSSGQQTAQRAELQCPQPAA
T1 sequence (P01024 749-1663 partner limits assumed): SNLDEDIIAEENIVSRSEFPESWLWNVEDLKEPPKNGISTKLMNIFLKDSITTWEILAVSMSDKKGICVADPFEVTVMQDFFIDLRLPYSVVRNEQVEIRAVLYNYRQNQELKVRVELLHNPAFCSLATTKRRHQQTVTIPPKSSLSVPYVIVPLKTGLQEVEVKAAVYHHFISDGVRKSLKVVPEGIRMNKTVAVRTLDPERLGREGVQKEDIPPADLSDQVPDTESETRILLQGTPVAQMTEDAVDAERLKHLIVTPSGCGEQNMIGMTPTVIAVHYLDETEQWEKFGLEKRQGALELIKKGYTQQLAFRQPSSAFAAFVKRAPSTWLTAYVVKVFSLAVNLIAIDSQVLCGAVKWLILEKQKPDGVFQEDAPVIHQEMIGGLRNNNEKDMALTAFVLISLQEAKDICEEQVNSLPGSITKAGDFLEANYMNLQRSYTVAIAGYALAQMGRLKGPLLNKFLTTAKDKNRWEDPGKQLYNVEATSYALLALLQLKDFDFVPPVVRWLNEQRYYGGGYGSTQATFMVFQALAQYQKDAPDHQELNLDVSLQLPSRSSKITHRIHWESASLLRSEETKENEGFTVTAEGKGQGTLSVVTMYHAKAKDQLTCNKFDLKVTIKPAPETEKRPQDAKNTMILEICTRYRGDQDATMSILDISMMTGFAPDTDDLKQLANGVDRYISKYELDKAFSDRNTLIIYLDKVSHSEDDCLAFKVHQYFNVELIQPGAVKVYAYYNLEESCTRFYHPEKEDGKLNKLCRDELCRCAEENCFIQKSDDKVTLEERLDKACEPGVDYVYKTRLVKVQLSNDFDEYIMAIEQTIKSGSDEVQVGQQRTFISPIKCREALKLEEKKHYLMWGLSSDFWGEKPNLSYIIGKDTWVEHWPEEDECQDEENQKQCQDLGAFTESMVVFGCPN
Experimental: SPR analysis. The interaction of the compstatin analogs with C3b was characterized using a Biacore 3000 instrument (GE Healthcare, Corp., Piscataway, N.J.). The running buffer was PBS, pH 7.4 (10 mM sodium phosphate, 150 mM NaCl) with 0.005% Tween-20. Biotinylated C3b was captured site-specifically on a streptavidin chip at about 3000 and 5000 RU density; two untreated flow cells were used as reference surface. For kinetic analysis, sets of five increasing concentrations of a particular compound were injected over the chip surface one after the other in a single cycle. […] Processed biosensor data were globally fitted to a 1:1 Langmuir binding model (kindly provided by GE Helthcare), and the equilibrium dissociation constant (KD) was calculated from the equation KD=kd/ka. Each assay was performed at least twice.

[1] = test system: classical pathway of complement; assay: ELISA inhibition of classical pathway complement activation; type: biochemical; settings: read-out: IC50, peptide concentration to reach 50% inhibition of classical pathway complement activation; Table 1
Experimental: Inhibition of complement activation. The ability of the compstatin analogs to inhibit the activation of the classical pathway of complement was assessed by ELISA as described elsewhere (Katragadda et al., 2006, supra; Mallik et al., 2005, supra). The percent inhibition was plotted against the peptide concentration, and the resulting data set was fitted to the logistic dose-response function using Origin 8.0 software. IC50 values were obtained from the fitted parameters that produced the lowest χ2 value. Each analog was assayed at least three times.

[2] = Solubility in WFI and DPBS; UPLC C18 retention time as hydrophobicity
Experimental: Approximately 5 mg of each peptide (acetate form) was weighed out into separate LoBind Eppendorf tubes and 50 μL water for injection (WFI) was added to each tube. Each sample was centrifuged at 13000 rpm for 2 min and diluted for measuring the optical density (OD) at 280 nm using a NanoDrop 2000 spectrophotometer (ThermoScientific, Wilmington, Del.). Each concentrated sample was diluted 1:20 into Dulbecco's phosphate buffered saline (DPBS, without potassium and calcium; Invitrogen, Carlsbad, Calif.). The samples were monitored for precipitation, and each sample was vortexed for 5 min and centrifuged at 13000 rpm for 2 min. The OD of each DPBS supernatant was measured to determine peptide concentration at saturation.
In addition, the ultra performance liquid chromatography (UPLC) retention time of these peptides on a C18 column was measured to reflect their apparent relative hydrophobicity (Table 3).

SMILES	ka: association rate (C3b)	Kd (C3b)	koff (C3b)	IC50 [1]	Binding affinity by SPR, in words (C3b; compared with Cp40 (peptide 14))	solubility at 5 min ([2]; Dulbecco's phosphate buffered saline, pH 7.4)	solubility ([2]; PBS)
CC[C@H](C)[C@H](NC(=O)[C@@H](N)[C@@H](C)O)C(=O)N[C@H]1CSSC[C@@H](C(=O)N(C)[C@H](C(N)=O)[C@@H](C)CC)NC(=O)[C@H](CCCNC(=N)N)NC(=O)[C@H](Cc2c[nH]cn2)NC(=O)[C@H](C)NC(=O)CN(C)C(=O)[C@H](Cc2c[nH]c3ccccc23)NC(=O)[C@H](CC(=O)O)NC(=O)[C@H](CCC(N)=O)NC(=O)[C@H](Cc2cn(C)c3ccccc23)NC(=O)[C@H](C(C)C)NC1=O [compound 8] (H-TICV[Trp(1-Me)]QDW[Sar]AHRC[NMeI]-NH2; disulfide 3-13)	1.2 ± 0.1 10^6/Ms	2.6 ± 0.3 nM	0.0031 ± 0.0002 s⁻¹				
CC[C@H](C)[C@H](NC(=O)[C@@H](N)Cc1ccc(OC)cc1)C(=O)N[C@H]1CSSC[C@@H](C(=O)N(C)[C@H](C(N)=O)[C@@H](C)CC)NC(=O)[C@H](CCCNC(=N)N)NC(=O)[C@H](Cc2c[nH]cn2)NC(=O)[C@H](C)NC(=O)CN(C)C(=O)[C@H](Cc2c[nH]c3ccccc23)NC(=O)[C@H](CC(=O)O)NC(=O)[C@H](CCC(N)=O)NC(=O)[C@H](Cc2cn(C)c3ccccc23)NC(=O)[C@H](C(C)C)NC1=O [compound 9]	2.3 ± 0.4 10^6/Ms						
CC[C@H](C)[C@H](NC(=O)[C@H](Cc1ccccc1)NC)C(=O)N[C@H]1CSSC[C@@H](C(=O)N(C)[C@H](C(N)=O)[C@@H](C)CC)NC(=O)[C@H](CCCNC(=N)N)NC(=O)[C@H](Cc2c[nH]cn2)NC(=O)[C@H](C)NC(=O)CN(C)C(=O)[C@H](Cc2c[nH]c3ccccc23)NC(=O)[C@H](CC(=O)O)NC(=O)[C@H](CCC(N)=O)NC(=O)[C@H](Cc2cn(C)c3ccccc23)NC(=O)[C@H](C(C)C)NC1=O [compound 10]	1.6 ± 0.2 10^6/Ms	1.8 ± 0.3 nM	0.0029 ± 0.0003 s⁻¹				
CC[C@H](C)[C@H](NC(=O)[C@@H](NC)C(C)C)C(=O)N[C@H]1CSSC[C@@H](C(=O)N(C)[C@H](C(N)=O)[C@@H](C)CC)NC(=O)[C@H](CCCNC(=N)N)NC(=O)[C@H](Cc2c[nH]cn2)NC(=O)[C@H](C)NC(=O)CN(C)C(=O)[C@H](Cc2c[nH]c3ccccc23)NC(=O)[C@H](CC(=O)O)NC(=O)[C@H](CCC(N)=O)NC(=O)[C@H](Cc2cn(C)c3ccccc23)NC(=O)[C@H](C(C)C)NC1=O [compound 11]	1.8 ± 0.3 10^6/Ms	1.9 ± 0.1 nM	0.0035 ± 0.0006 s⁻¹				
CC[C@H](C)[C@H](NC)C(=O)N[C@H](C(=O)N[C@H]1CSSC[C@@H](C(=O)N(C)[C@H](C(N)=O)[C@@H](C)CC)NC(=O)[C@H](CCCNC(=N)N)NC(=O)[C@H](Cc2c[nH]cn2)NC(=O)[C@H](C)NC(=O)CN(C)C(=O)[C@H](Cc2c[nH]c3ccccc23)NC(=O)[C@H](CC(=O)O)NC(=O)[C@H](CCC(N)=O)NC(=O)[C@H](Cc2cn(C)c3ccccc23)NC(=O)[C@H](C(C)C)NC1=O)[C@@H](C)CC [compound 12]	1.6 ± 0.2 10^6/Ms	2.4 ± 0.5 nM	0.0037 ± 0.0003 s⁻¹				
CC[C@H](C)[C@H](NC(=O)[C@H](C)NC)C(=O)N[C@H]1CSSC[C@@H](C(=O)N(C)[C@H](C(N)=O)[C@@H](C)CC)NC(=O)[C@H](CCCNC(=N)N)NC(=O)[C@H](Cc2c[nH]cn2)NC(=O)[C@H](C)NC(=O)CN(C)C(=O)[C@H](Cc2c[nH]c3ccccc23)NC(=O)[C@H](CC(=O)O)NC(=O)[C@H](CCC(N)=O)NC(=O)[C@H](Cc2cn(C)c3ccccc23)NC(=O)[C@H](C(C)C)NC1=O [compound 13]	1.4 ± 0.2 10^6/Ms	2.5 ± 0.6 nM	0.0034 ± 0.0003 s⁻¹				
CC[C@H](C)[C@H](NC(=O)[C@H](N)Cc1ccccc1)C(=O)N[C@H]1CSSC[C@@H](C(=O)N(C)[C@H](C(N)=O)[C@@H](C)CC)NC(=O)[C@H](CCCNC(=N)N)NC(=O)[C@H](Cc2c[nH]cn2)NC(=O)[C@H](C)NC(=O)CN(C)C(=O)[C@H](Cc2c[nH]c3ccccc23)NC(=O)[C@H](CC(=O)O)NC(=O)[C@H](CCC(N)=O)NC(=O)[C@H](Cc2cn(C)c3ccccc23)NC(=O)[C@H](C(C)C)NC1=O [compound 15]	2.3 ± 0.3 10^6/Ms	1.1 ± 0.1 nM	0.0026 s⁻¹				
CC[C@H](C)[C@H](NC(=O)[C@H](N)Cc1c[nH]c2ccccc12)C(=O)N[C@H]1CSSC[C@@H](C(=O)N(C)[C@H](C(N)=O)[C@@H](C)CC)NC(=O)[C@H](CCCNC(=N)N)NC(=O)[C@H](Cc2c[nH]cn2)NC(=O)[C@H](C)NC(=O)CN(C)C(=O)[C@H](Cc2c[nH]c3ccccc23)NC(=O)[C@H](CC(=O)O)NC(=O)[C@H](CCC(N)=O)NC(=O)[C@H](Cc2cn(C)c3ccccc23)NC(=O)[C@H](C(C)C)NC1=O [compound 16]	2.0 ± 0.2 10^6/Ms						
CC[C@H](C)[C@H](NC(=O)[C@H](N)CC1CCCCC1)C(=O)N[C@H]1CSSC[C@@H](C(=O)N(C)[C@H](C(N)=O)[C@@H](C)CC)NC(=O)[C@H](CCCNC(=N)N)NC(=O)[C@H](Cc2c[nH]cn2)NC(=O)[C@H](C)NC(=O)CN(C)C(=O)[C@H](Cc2c[nH]c3ccccc23)NC(=O)[C@H](CC(=O)O)NC(=O)[C@H](CCC(N)=O)NC(=O)[C@H](Cc2cn(C)c3ccccc23)NC(=O)[C@H](C(C)C)NC1=O [compound 17]	1.8 ± 0.5 10^6/Ms	1.5 ± 0.2 nM	0.0027 ± 0.0004 s⁻¹				
CC[C@H](C)[C@H](NC(=O)[C@@H](C)N)C(=O)N[C@H]1CSSC[C@@H](C(=O)N(C)[C@H](C(N)=O)[C@@H](C)CC)NC(=O)[C@H](CCCNC(=N)N)NC(=O)[C@H](Cc2c[nH]cn2)NC(=O)[C@H](C)NC(=O)CN(C)C(=O)[C@H](Cc2c[nH]c3ccccc23)NC(=O)[C@H](CC(=O)O)NC(=O)[C@H](CCC(N)=O)NC(=O)[C@H](Cc2cn(C)c3ccccc23)NC(=O)[C@H](C(C)C)NC1=O [compound 18]	1.4 ± 0.3 10^6/Ms	2.5 ± 0.4 nM	0.0034 ± 0.0004 s⁻¹				
CC[C@H](C)[C@H](NC)C(=O)N[C@H]1CSSC[C@@H](C(=O)N(C)[C@H](C(N)=O)[C@@H](C)CC)NC(=O)[C@H](CCCNC(=N)N)NC(=O)[C@H](Cc2c[nH]cn2)NC(=O)[C@H](C)NC(=O)CN(C)C(=O)[C@H](Cc2c[nH]c3ccccc23)NC(=O)[C@H](CC(=O)O)NC(=O)[C@H](CCC(N)=O)NC(=O)[C@H](Cc2cn(C)c3ccccc23)NC(=O)[C@H](C(C)C)NC1=O [peptide 1]	1.3 ± 0.3 10^6/Ms	18.6 ± 3.5 nM	0.0248 ± 0.0073 s⁻¹	180 ± 17 nM	high binding affinity		
CC[C@H](C)[C@H](NC(=O)CN)C(=O)N[C@H]1CSSC[C@@H](C(=O)N(C)[C@H](C(N)=O)[C@@H](C)CC)NC(=O)[C@H](CCCNC(=N)N)NC(=O)[C@H](Cc2c[nH]cn2)NC(=O)[C@H](C)NC(=O)CN(C)C(=O)[C@H](Cc2c[nH]c3ccccc23)NC(=O)[C@H](CC(=O)O)NC(=O)[C@H](CCC(N)=O)NC(=O)[C@H](Cc2cn(C)c3ccccc23)NC(=O)[C@H](C(C)C)NC1=O [peptide 2] (H-GICV[Trp(1-Me)]QDW[Sar]AHRC[NMeI]-NH2; disulfide 3-13)	1.2 ± 0.3 10^6/Ms	2.5 ± 0.5 nM	0.0029 ± 0.0002 s⁻¹	113 ± 16 nM			
CC[C@H](C)[C@H](NC(=O)[C@@H](N)Cc1ccc(O)cc1)C(=O)N[C@H]1CSSC[C@@H](C(=O)N(C)[C@H](C(N)=O)[C@@H](C)CC)NC(=O)[C@H](CCCNC(=N)N)NC(=O)[C@H](Cc2c[nH]cn2)NC(=O)[C@H](C)NC(=O)CN(C)C(=O)[C@H](Cc2c[nH]c3ccccc23)NC(=O)[C@H](CC(=O)O)NC(=O)[C@H](CCC(N)=O)NC(=O)[C@H](Cc2cn(C)c3ccccc23)NC(=O)[C@H](C(C)C)NC1=O [peptide 4]	2.1 ± 0.3 10^6/Ms			72 ± 10 nM			
CC[C@H](C)[C@@H](C(N)=O)N(C)C(=O)[C@@H]1CSSC[C@H](NC(=O)[C@H](Cc2c[nH]c3ccccc23)NC(C)=O)C(=O)N[C@@H](C(C)C)C(=O)N[C@@H](Cc2cn(C)c3ccccc23)C(=O)N[C@@H](CCC(N)=O)C(=O)N[C@@H](CC(=O)O)C(=O)N[C@@H](Cc2c[nH]c3ccccc23)C(=O)N(C)CC(=O)N[C@@H](C)C(=O)N[C@@H](Cc2c[nH]cn2)C(=O)N[C@@H](CCCNC(=N)N)C(=O)N1 [peptide 19] (Ac-WCV[Trp(1-Me)]QDW[Sar]AHRC[NMeI]-NH2; disulfide 2-12)	3.8 ± 0.3 10^6/Ms	0.5 nM	0.0017 ± 0.0003 s⁻¹			< 200 µg/mL	< 100 µM
CC[C@H](C)[C@@H](C(N)=O)N(C)C(=O)[C@@H]1CSSC[C@H](NC(=O)CNC(=O)[C@@H](N)Cc2ccc(O)cc2)C(=O)N[C@@H](C(C)C)C(=O)N[C@@H](Cc2cn(C)c3ccccc23)C(=O)N[C@@H](CCC(N)=O)C(=O)N[C@@H](CC(=O)O)C(=O)N[C@@H](Cc2c[nH]c3ccccc23)C(=O)N(C)CC(=O)N[C@@H](C)C(=O)N[C@@H](Cc2c[nH]cn2)C(=O)N[C@@H](CCCNC(=N)N)C(=O)N1 [peptide 20] (H-YGCV[Trp(1-Me)]QDW[Sar]AHRC[NMeI]-NH2; disulfide 3-13)	2.1 ± 0.3 10^6/Ms	3.5 ± 0.3 nM	0.0073 ± 0.0014 s⁻¹				
